From patent publication US8748428B2, “Use of a PKC inhibitor” (Novartis AG, priority 2010, dated 2014)

Key:
DB cells = experiment: Growth inhibition, CellTiter-Glo, 5 days; assay type: cell-based; settings: Homo sapiens, 120 h, GC DLBCL, no NFkB mutation, 5 days treatment, read-out: growth inhibitory IC50, DB
From the text: (§1) Two pharmacological PKC inhibitors: (i) the pan-PKC inhibitor, Sotrastaurin, also known as AEB071, and (ii) the PKCa/b-selective compound, 3-[2-chloro-7-[(dimethylamino)methyl]-1-naphthalenyl]-4-[7-[2-(2-methoxyethoxy)ethoxy]-1H-indol-3-yl]-1H-pyrrole-2,5-dione (referred to herein as “Compound B”), were used to evaluate the proliferation of several diffuse large B cell lymphoma (DLBCL) lines. The IKKb-selective inhibitors N-(6-chloro-7-methoxy-9H-β-carbolin-8-yl)-2-methylnicotinamide (referred to herein as “MLN120B”) and N-[(2R,6R)-2,6-dimethyl-4-piperidinyl]-4-(7-fluoro-1H-indol-3-yl)-2-pyrimidinamine (referred to herein as “Compound A”) were used as control compounds. ABC DLBCL cell lines (OCI-LY3, OCI-LY10, HBL1, U2932, TMD8, Su-DHL2) and GC DLBCL cell lines (Su-DHL4, DB, K-422) were treated for 5 days with PKC inhibitors (A) Sotrastaurin (AEB071) or (B) Compound B; IKKb inhibitors (C) MLN120B or (D) Compound A. Cells were plated in 96-well plates (Corning, #3358) at 5000 cells/well in 100 μL and treated with DMSO or inhibitors at concentrations ranging from 160 nM to 20 μM (2-fold dilutions). Following 5 days of treatment, cells were lysed with CellTiter-Glo® Luminescent Cell Viability Assay reagent (Promega, G7573), lysates were transferred to opaque 96-well plates (Corning, #3971), and luminescence signal was read using the Envision. Percent growth was calculated relative to median DMSO signal.
(§2) While all ABC DLBCL cell lines were sensitive to IKK inhibitors, their response to PKC inhibitors varied strongly (Table 1A below). The cell lines that are insensitive to PKC inhibitors, OCI-Ly3 and Su-DHL2, have reported mutations in CARD11 and A20, respectively. […] The fact that these oncogenic lesions are thought to function downstream of PKCβ in CBM-NFkB signaling provides a molecular rationale for their insensitivity. […] See, Compagno, M., et al, “Mutations of multiple genes cause deregulation of NF-κB in diffuse large B-cell lymphoma” Nature, 459 (7247), 717-722 (2009)). […] Tables 1A and 1B below show the growth inhibitory IC50 values, which were determined by measuring ATP concentration (Cell Titer Glo), for the indicated compounds in the indicated cell lines. IC50 values were determined as the concentration of compound that leads to 50% reduction of cell growth.

HBL1 cells = experiment: Growth inhibition, CellTiter-Glo, 5 days; assay type: cell-based; settings: HBL1, 120 h; ABC DLBCL, CD79B mutation; 5 days treatment; read-out: growth inhibitory IC50, HBL1
From the text: as §1, §2

K422 cells = experiment: Growth inhibition, CellTiter-Glo, 5 days; assay type: cell-based; settings: 120 h; GC DLBCL, no NFkB mutation; 5 days treatment; read-out: growth inhibitory IC50, K422
From the text: as §1, §2

OCI-Ly10 cells = experiment: Growth inhibition, CellTiter-Glo, 5 days; assay type: cell-based; settings: Homo sapiens, OCI-Ly10, 120 h; ABC DLBCL, CD79A mutation; 5 days treatment; read-out: growth inhibitory IC50, OCI-Ly10
From the text: as §1, §2

OCI-Ly3 cells = experiment: Growth inhibition, CellTiter-Glo, 5 days; assay type: cell-based; settings: Homo sapiens, OCI-Ly3, 120 h; ABC DLBCL, CARD11 mutation; 5 days treatment; read-out: growth inhibitory IC50, OCI-Ly3
From the text: as §1, §2

Su-DHL2 cells = experiment: Growth inhibition, CellTiter-Glo, 5 days; assay type: cell-based; settings: Homo sapiens, SU-DHL-2, 120 h; ABC DLBCL, A20 mutation; 5 days treatment; read-out: growth inhibitory IC50, Su-DHL2
From the text: as §1, §2

Su-DHL4 cells = experiment: Growth inhibition, CellTiter-Glo, 5 days; assay type: cell-based; settings: Homo sapiens, SU-DHL-4, 120 h; GC DLBCL, no NFkB mutation; 5 days treatment; read-out: growth inhibitory IC50, Su-DHL4
From the text: as §1, §2

TMD8 cells = experiment: Growth inhibition, CellTiter-Glo, 5 days; assay type: cell-based; settings: Homo sapiens, TMD8, 120 h; ABC DLBCL, CD79B mutation; 5 days treatment; read-out: growth inhibitory IC50, TMD8
From the text: as §1, §2

U2392 cells = experiment: Growth inhibition, CellTiter-Glo, 5 days; assay type: cell-based; settings: 120 h; ABC DLBCL, TAK1 mutation; 5 days treatment; read-out: growth inhibitory IC50, U2392
From the text: as §1, §2

[1] = tested on: IL-10 mRNA in TMD8 xenograft tumor; experiment: IL-10 mRNA expression in TMD8 xenograft tumor tissue (PD arm); assay type: in vivo, SCID-beige mice
Procedure: To confirm that the growth inhibitory effect in response to PKC inhibition is mediated through modulation of NFkB pathway signaling, the mRNA expression of IL-10 was monitored in response to AEB071 treatment in a PD arm of the in vivo study. Mice were implanted with TMD8 cells as described above, and when the tumor volume reached ˜160 mm^3, a single dose of 80 mg/kg AEB071 was administered. Tumor samples were harvested and snap frozen in liquid nitrogen, at 1 hour or 8 hours following the single does of AEB071. Tissue samples were homogenized and lysed in RLT buffer (Qiagen, #74104) with Reagent DX (Qiagen, 19088) using the TissueLyser II (Qiagen, 85300). Total RNA was harvested using the RNeasy kit (Qiagen, #74104) and cDNA was made from 1 μg total RNA using the High Capacity cDNA kit (ABI, #4368814), according to manufacturer's protocols. The IL-10 Taqman probe (ABI, Hs00174086_m1) was used with Gene Expression Master Mix (ABI, 4369510) to determine the amount of mRNA expression for IL-10 relative to an endogenous control gene (ABI: TBP, 4326322E) and the DMSO control using the delta-delta Ct method. […] Consistent with the in vitro kinetics of NFkB target gene downregulation by AEB071, IL-10 mRNA expression was unaffected after just 1 hour of treatment (see, FIG. 3A).

- IC50 (OCI-Ly10 cells): 1.3 µM
- IC50 (OCI-Ly3 cells): > 20 µM
- IC50 (Su-DHL2 cells): > 20 µM
- IC50 (Su-DHL4 cells): > 20 µM
Compound: CN1CCN(c2nc(C3=C(c4c[nH]c5ccccc45)C(=O)NC3=O)c3ccccc3n2)CC1 [AEB071, 3-(1H-Indol-3-yl)-4-[2-(4-methylpiperazin-1-yl)quinazolin-4-yl]-1H-pyrrole-2,5-dione]
- IC50 (DB cells): > 20 µM
- IC50 (HBL1 cells): 0.5 µM
- IC50 (K422 cells): > 20 µM
- IC50 (TMD8 cells): 0.2 µM
- IC50 (U2392 cells): 5 µM
- IL-10 mRNA expression in xenograft tumor tissue ([1]; 1 hour after single dose of 80 mg/kg): unaffected
- IL-10 mRNA expression in xenograft tumor tissue ([1]; 8 hours after single dose of 80 mg/kg): decrease
